Measured values from paper PMC7070709, “Design, Synthesis, and In Vitro Evaluation of Hydroxybenzimidazole-Donepezil Analogues as Multitarget-Directed Ligands for the Treatment of Alzheimer’s Disease” (Molecules, 2020).
“Also recorded” adds a separate entry of the source. Where two headings read alike, the source gives them in different places.

Legend:
[1] = biological target: T1, AChE (type VI-S, from electric eel) (Electrophorus electricus, UniProt O42275); settings: read-out: TcAChE Inhibition IC50; cited from earlier work
T1 construct: purchased type VI-S
T1 sequence (O42275 24-633): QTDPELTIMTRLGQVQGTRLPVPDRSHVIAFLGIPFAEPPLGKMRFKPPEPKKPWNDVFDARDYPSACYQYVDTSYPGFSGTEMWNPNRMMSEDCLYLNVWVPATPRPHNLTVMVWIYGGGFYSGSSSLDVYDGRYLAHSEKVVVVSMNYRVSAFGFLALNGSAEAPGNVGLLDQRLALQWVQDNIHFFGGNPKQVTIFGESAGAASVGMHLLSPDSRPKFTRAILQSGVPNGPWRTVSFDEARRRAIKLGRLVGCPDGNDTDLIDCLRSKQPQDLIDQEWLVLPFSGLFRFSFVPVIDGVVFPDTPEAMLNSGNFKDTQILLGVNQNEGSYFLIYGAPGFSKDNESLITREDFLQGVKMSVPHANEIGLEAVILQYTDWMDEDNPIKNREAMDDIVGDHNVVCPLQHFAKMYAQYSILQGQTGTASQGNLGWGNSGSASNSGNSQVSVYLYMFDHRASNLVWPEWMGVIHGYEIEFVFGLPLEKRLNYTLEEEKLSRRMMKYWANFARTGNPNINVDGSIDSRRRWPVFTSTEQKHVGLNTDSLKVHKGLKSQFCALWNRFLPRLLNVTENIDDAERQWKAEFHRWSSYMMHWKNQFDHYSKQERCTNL

Aβ1–42 with Cu(II) [2] = biological target: T2, Aβ1–42 with Cu(II) (Homo sapiens, UniProt P05067); design: method as in PMID 32171933; settings: copper 40 µM, cited from earlier work
T2 construct: Aβ1–42 (40 μM) was incubated at 37 °C, for 24 h with or without Cu(II) (40 μM)
T2 sequence (P05067 672-713): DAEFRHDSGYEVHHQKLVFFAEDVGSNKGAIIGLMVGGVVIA

[3] = pH 7.4, CL/CM = 10, CM = 10^−6 M; cited from earlier work
[4] = 50% w/w DMSO/water, I = 0.1 M KCl, 25.0 °C; cited from earlier work
[5] = Cu(II) chelation by potentiometry; format: physicochemical; settings: pH 7.4; read-out: conditional dissociation constant (K´d) for the copper complex
Excerpt: The metal chelating ability of hybrids 7 and 12, due to the BIM bidentate unity with (N,O) coordination mode, was studied by potentiometry. Figure 3A,B show a change in the deprotonation profile of the ligand titration curves due to the presence of the metal ions. In fact, the curves for the Cu(II)/L systems lie well below that of the ligand, while for the Zn(II)/L systems stay under for a > −1 (compound 7) or a > 0 (compound 12), thus supporting the formation of 1:1 and 1:2 M/L ratio complexes with the deprotonated and mono-protonated forms of the ligand and with relative metal dependent stability order (Cu > Zn). Table 1 contains the equilibrium models obtained from the fitting analysis of the potentiometric curves by program Hyperquad. In these equilibrium models, which the coordination core of the compounds integrates the bidentate (N,O) BIM moiety, MHL and MH2L2 correspond to species with the ligand containing one protonated nitrogen atom at the piperazine moiety, ML and ML2 correspond to complexes involving the completely deprotonated form of the ligand while MH-1L2 are mixed ligand-hydroxo metal complexes.
Solutions: the aqueous copper (CuCl2, 0.015 M) and zinc (ZnCl2, 0.0156 M) stock solutions for potentiometric equilibrium studies were prepared from 1000 ppm standards (Titrisol) and their metal content was evaluated by atomic absorption. The titrant solution (0.1 M KOH) was obtained from a carbonate-free commercial concentrate (Titrisol) and standardized by potentiometric titration with potassium hydrogen phthalate. The titrant solution was discarded whenever the percentage of carbonate (Gran’s method) was about 0.5% of the total amount of base.
Measurements: compounds 7 and 12 were titrated in 50% (w/w) DMSO/H2O medium, at T = 25.0 ± 0.1 °C and ionic strength (I) 0.1 M KCl, using 0.1 M KOH as titrant. Both glass and Ag/AgCl reference electrodes were previously conditioned in DMSO/H2O mixtures with increasing amounts of DMSO and the response of the glass electrode was controlled by strong acid–strong base (HCl/KOH) calibrations with the determination of the Nernst parameters by Gran’s method. […] All titrations were performed in duplicate and under the stated experimental conditions the pKw value (13.6) was determined and subsequently used in the computations. The stepwise protonation constant of the ligand, Ki = [HiL]/([Hi–1L][H]), and the overall metal–complex stability constants, βMmHhLl = [MmHhLl]/([M]^m[H]^h[L]^l), were calculated by fitting the potentiometric titration data with Hyperquad 2008 [26]. The metal hydrolysis constants were determined under the defined experimental conditions (I = 0.1 M KCl, 50% w/w DMSO/H2O, T = 25.0 ± 0.1 °C) and the following values of stability constants were included in the fitting of experimental data towards the equilibrium models related to the Cu^2+/L and Zn^2+/L systems: log βCu2H−2 = −9.99; log βZnH−2 = −14.79, log βZnH−3 = −23.48. Species distribution curves were plotted with the Hyss program.

Aβ1–42 [6] = biological target: T3, Aβ1–42 (Homo sapiens, UniProt P05067); design: method as in PMID 32171933; settings: cited from earlier work
T3 construct: Aβ1–42 (40 μM) was incubated at 37 °C, for 24 h with or without Cu(II) (40 μM)
T3 sequence (P05067 672-713): as above

[7] = pH 7.4, CL/CM = 10, CM = 10^−6 M; cited from earlier work; remark: listed apart in the source
Aβ1–42 [8] = biological target: T3, Aβ1–42; assay: Inhibition of self-mediated Aβ1–42 aggregation (thioflavin T fluorescence); format: biochemical; settings: inhibitor 40 µM, Aβ1–42 40 μM, 24 h, 37 °C; read-out: Aβ1–42 Aggregation Inhibition, Self-Induced
Description: (§1) The anti-amyloidogenic capacity of the compounds was also evaluated in vitro, in the absence and presence of Cu(II), based on the measurement of the fluorescence emission of Thioflavin T (ThT), a stain known by its Aβ fibril binding capacity. This binding interaction can be analyzed by fluorimetry, since the presence of ThT-fibrils increases the absorbance and the emission of the ThT dye, and it also induces red shifts on the absorbance (from 385 to 446 nm) and emission peaks (from 445 to 485 nm). All the measurements were performed after incubation (24 h, 37 °C) of the self-mediated and Cu^2+-induced Aβ aggregates in the presence/absence of the compounds under evaluation.
(§2) Herein, due to solubility problems of some compounds in the phosphate buffer (0.215 M, pH 8.0) of the working medium, the assays were carried out in the presence of 40 μM concentration of inhibitor and 20 μM in the case of compound 4, instead of 80 μM as previously reported. […] The activity dependence on ligand structural features may be mainly explained by the different ability for intercalation into the fibrils, as already assumed for other inhibitors. […] The data obtained for compounds 6 and 7 indicate that the presence of R1 = F, -NO2 substituents in the BIM have some small positive effect on the inhibition of Aβ aggregation.
(§3) The Aβ peptide was treated with 1,1,1,3,3,3-hexafluoropropan-2-ol (HFIP) and dissolved in a CH3CN/Na2CO3 (300 μM)/NaOH (250 μM) (48.3:48.3:4.3, v/v/v) mixture in order to have a stable stock solution, avoiding self-aggregation of Aβ1–42. Then, the prepared 500 μM solution was diluted at 40 μM in phosphate buffer (0.215 M, pH 8.0).
(§4) The solutions of the tested compounds were prepared in MeOH (1 mg/mL), being further diluted in phosphate buffer to a concentration of 480 μM. For copper-induced aggregation studies, a solution of CuCl2 240 μM was prepared from a stock standard solution (0.015 M). To perform the assays for the Aβ1–42 aggregation inhibition, a reported method, based on the fluorescence emission of thioflavin T (ThT), was followed. Aβ1–42 (40 μM) was incubated at 37 °C, for 24 h with or without Cu(II) (40 μM) in a phosphate buffer in presence or absence of the single ligand (40 μM and 20 μM for compound 4). Then, the samples were added to a 96-well plate with […] of 5 μM ThT in 50 mM glycine-NaOH (pH 8.5) buffer. Blank samples were prepared without the peptide for each concentration. The ThT fluorescence was measured at 446 nm (excitation) and 485 nm (emission). The inhibition percentage of aggregation was calculated by Equation (2), in which IFi and IF0 corresponded to the fluorescence intensities, in the presence and in the absence of the tested compound, subtracted of the fluorescence intensities due to the respective blanks.
(§5) The reported values were obtained as the mean ± SEM of duplicate of three different experiments.

SH-SY5Y cells = assay: Neuroprotection from Aβ42-induced toxicity (MTT); format: cell-based, human; settings: compound 2.5 µM, 1 h pre-incubation plus 24 h co-incubation with Aβ42 1 µM
Description: Extracellular formation of senile plaques of aggregated Aβ along with the production of reactive oxygen species (ROS) are processes involved in the neurodegeneration that characterize AD [42]. […] Additionally, ROS production is also one of the hallmarks associated with AD pathogenesis.
SH-SY5Y human neuroblastoma cell line (ATCC-CRL-2266) was cultured in Dulbecco’s Modified Eagle Medium (DMEM) (Gibco-Invitrogen, Life Technologies Ltd., Liverpool, UK) supplemented with 10% of heat inactivated fetal bovine serum, 50 U/mL penicillin, and 50 μg/mL streptomycin, at 37 °C in 5% CO2. For the cell viability experiments, cells were plated with a density of 0.12 × 10^6 cells/mL. All the tested compounds (from 7 to 12) were dissolved in DMSO and aliquots were stored at −20 °C with a stock concentration of 25 mM. To choose the highest non-toxic concentration of the compounds, a concentration screening was performed (from 2.5 μM to 10 μM). For the experiments, all the compounds were added to the medium at a final concentration of 2.5 μM. […] Cells were pre-incubated for 1 h with the compounds and then incubated with Aβ1–42 or with Fe/Asc for an additional 24 h. […]
Cell viability was determined using the colorimetric 3-(4,5-dimethylthiazol-2-yl)-2,5-diphenyltetrazolium bromide (MTT) assay. […] The absorbance of the plate was measured at 570 nm. […]

[9] = biological target: T1, AChE (type VI-S, from electric eel); assay: AChE inhibition, adaptation of Ellman's method; format: biochemical; settings: means of three independent experiments ± SD, read-out: TcAChE Inhibition IC50
Description: The inhibition of AChE by the DNP-BIM hybrids herein studied was assayed by using a variation of Ellman´s test and the IC50 values obtained are included in Table 2. […]. An adaptation of the Ellman´s method, previously described, was used to measure the acetylcholinesterase inhibitory activity. The assay solution contained 374 µL of 4-(2-hydroxyethyl)-1-piperazineethanesulfonic acid (HEPES) buffer (50 mM, pH 8.0), 476 µL of 5,5’-dithiobis-(2-nitrobenzoic acid) (DTNB, 3 mM), a variable volume (10–50 µL) of the stock solution of each compound in methanol (1 mg/mL), 25 µL of AChE (type VI-S, from electric eel) stock solution, and the necessary amount of methanol to obtain 0.925 mL of sample mixture in a 1 mL cuvette. The samples were incubated for 15 min and then 75 µL of acetylthiocholine iodide (AChI) solution (16 mM) was added. The reaction was monitored for 5 min at 405 nm. Assays were run with a blank containing all the components except AChE, which was replaced by HEPES buffer. The rates of the reaction were calculated as well as the enzyme activity. A control reaction was carried out using methanol as a sample solution and it was considered as 100% activity.
The inhibition curves were obtained by plotting the percentage of enzymatic inhibition versus inhibitor concentration and a calibration curve was got from which the linear regression parameters were obtained.

Aβ1–42 with Cu(II) [10] = biological target: T2, Aβ1–42 with Cu(II); assay: Inhibition of Cu-induced Aβ1–42 aggregation (thioflavin T fluorescence); format: biochemical; settings: inhibitor 40 µM, copper 40 µM, Aβ1–42 40 μM, 24 h, 37 °C
Description: as §1, §2, §3, §4, §5

Compound	IC50 [1] [µM]	Aβ1–42 Aggregation Inhibition, Cu-Induced (Aβ1–42 with Cu(II) [2]; footnote e)	pZn (pM = −log[M]) [3]	log K1, stepwise protonation constant (011) [4]	log K2, stepwise protonation constant (021) [4]	log K3, stepwise protonation constant (031) [4]	Kd [5] [µM]	Aβ1–42 Aggregation Inhibition, Self-Induced (Aβ1–42 [6]; footnote e)	pCu (pM = −log[M]) [7]	Aβ1–42 Aggregation Inhibition, Cu-Induced (Aβ1–42 with Cu(II) [2]; footnote d, Cinhibitor = 80 µM)	Aβ1–42 Aggregation Inhibition, Self-Induced (Aβ1–42 [6]; footnote d, Cinhibitor = 80 µM)	inhibition at 40 µM (Aβ1–42 [8]) [%]	neuroprotective effect against Aβ42-induced cell toxicity (cell viability, MTT) (SH-SY5Y cells)	IC50 [9] [µM]	inhibition at 40 µM (Aβ1–42 with Cu(II) [10]) [%]
O=C(NCC1CCN(Cc2ccccc2)CC1)c1ccc2nc(-c3ccccc3O)[nH]c2c1 [Compound 1]	4.2 ± 0.8	69.0 ^e %	6.3	8.671(1)	7.39(1)	3.21(1)	0.034	48.8 ^e %	–	–	–	–	–	–	–
O=C(NCCN1CCN(Cc2ccccc2)CC1)c1ccc2nc(-c3ccccc3O)[nH]c2c1 [Compound 2]	6.9 ± 0.6	–	6.3	9.04(3)	6.76(6)	3.37(7)	0.024	–	10.7	37.7 ^d %	25.3 ^d %	–	–	–	–
COc1ccc(-c2nc3ccc(C(=O)NCCN4CCN(Cc5ccccc5)CC4)cc3[nH]2)c(O)c1 [Compound 9, N-(2-(4-Benzylpiperazin-1-yl)ethyl)-2-(4-metoxy-2-hydroxyphenyl)-1H-benzo[d]imidazole-5-carboxamide]	–	–	–	–	–	–	–	–	–	–	–	43.7	remarkable reduction of Aβ-induced cell toxicity; also recorded: prevented Aβ-induced cell toxicity	1.87 ± 0.8	66
O=C(NCCN1CCN(Cc2ccccc2F)CC1)c1ccc2nc(-c3ccccc3O)[nH]c2c1 [Compound 10, N-(2-(4-(2-Fluorobenzyl)piperazin-1-yl)ethyl)-2-(2-hydroxyphenyl)-1H-benzo[d]imidazole-6-carboxamide]	–	–	–	–	–	–	–	–	–	–	–	39.1	remarkable reduction of Aβ-induced cell toxicity; also recorded: prevented Aβ-induced cell toxicity	4.32 ± 0.03	75.8
